Assay results reported in patent publication US12239719B2, “Fluorochemical targeted therapies” (MT RESEARCH, LLC, priority 2016, dated 2025).

Legend:
[1] = test system: metastatic pulmonary osteosarcoma; assay: Aerosol treatment of dog with metastatic pulmonary osteosarcoma; type: in vivo; conditions: control dogs (n=50), gemcitabine alone
Method: A dog with extensive metastatic pulmonary osteosarcoma was treated with 60% perflubron emulsion (PFCE) containing 9 mg/mL gemcitabine (GCB) (PFCE-GCB=1000 mg GCB in 110 mL 60% perflubron emulsion). Aerosolized PFCE-GCB was delivered to the lungs of the dog twice weekly using an AeroTech™ II nebulizer (Biodex Medical Systems, Inc., Shirley, NY).
Treatment was discontinued at 6 months.
Control dogs (n=50) received gemcitabine alone.

[2] = oral (drink); cited from earlier work

Row | Compound | durable tumor eradication [1] | fraction absorbed [2] [%]
1 | Nc1ccn([C@@H]2O[C@H](CO)[C@@H](O)C2(F)F)c(=O)n1 [gemcitabine] | tumors returned in all control cases | –
2 | COC(=O)c1ccc2c(c1)NC(=O)/C2=C(\Nc1ccc(N(C)C(=O)CN2CCN(C)CC2)cc1)c1ccccc1 [nintedanib] | – | 5
